Results on one molecule are retold here after patent publication US10519107B2, “Sulfonamide compounds and their use as STAT5 inhibitors” (Governing Council of the University of Toronto, priority 2014, dated 2019).

Series [1] concerns 120 representative kinases (incl. JAK 1/2, ABL, FLT-3). In words: KINOMEscan (DiscoverX) kinase profiling. Format: binding. To be noted: 5 μM, 120 kinases incl. JAK 1/2, ABL, qPCR. As for the experimental part: KINOMEscan kinase profiling was performed as previously described (Fabian et al., 2005; Karaman et al., 2008). For most assays, kinase-tagged T7 phage strains were grown in parallel in 24-well blocks in an E. coli host derived from the BL21 strain. E. coli were grown to log-phase and infected with T7 phage from a frozen stock (multiplicity of infection=0.4) and incubated with shaking at 32° C. until lysis (90-150 minutes). The lysates were centrifuged (6,000×g) and filtered (0.2 μm) to remove cell debris. The remaining kinases were produced in HEK-293 cells and subsequently tagged with DNA for qPCR detection as previously described (Wodicka et al., 2010). […] The liganded beads were blocked with excess biotin and washed with blocking buffer (SeaBlock (Pierce), 1% BSA, 0.05% Tween 20, 1 mM DTT) to remove unbound ligand and to reduce non-specific phage binding. […] All reactions were performed in polypropylene 384-well plates in a final volume of 0.04 ml. […] The kinase concentration in the eluates was measured by qPCR and the data presented as % Ctrl (FIG. 1).
(In qPCR the cycle at which signal appears reflects the starting amount.)

For series [2], the target named is wildtype STAT3 protein (Homo sapiens, UniProt P40763). In words: Fluorescence polarization competitive binding, STAT3. Particulars: FP; converted from IC50 with Equation 1. The method, then: Binding of compounds of the disclosure to the STAT5b SH2 domain was assessed using fluorescence polarization assays similar to those previously reported.^15 Analogous assays were also performed with STAT3 protein to determine the specificity of the compounds (13a-d). Fluorescence assays were performed in flat black 384-well plates (Corning) and fluorescence polarization measurements were taken with the Infinite M1000 machine (Tecan, Crailsheim, Germany). The buffer conditions for all assays were 20 mM HEPES, 50 mM NaCl, 1 mM EDTA, 2 mM dithiothreitol, pH 7.5 and the final DMSO concentration in the wells was kept constant at 10%.
Sequence of wildtype STAT3 protein (P40763 whole entry, species assumed, the tested form may be a part): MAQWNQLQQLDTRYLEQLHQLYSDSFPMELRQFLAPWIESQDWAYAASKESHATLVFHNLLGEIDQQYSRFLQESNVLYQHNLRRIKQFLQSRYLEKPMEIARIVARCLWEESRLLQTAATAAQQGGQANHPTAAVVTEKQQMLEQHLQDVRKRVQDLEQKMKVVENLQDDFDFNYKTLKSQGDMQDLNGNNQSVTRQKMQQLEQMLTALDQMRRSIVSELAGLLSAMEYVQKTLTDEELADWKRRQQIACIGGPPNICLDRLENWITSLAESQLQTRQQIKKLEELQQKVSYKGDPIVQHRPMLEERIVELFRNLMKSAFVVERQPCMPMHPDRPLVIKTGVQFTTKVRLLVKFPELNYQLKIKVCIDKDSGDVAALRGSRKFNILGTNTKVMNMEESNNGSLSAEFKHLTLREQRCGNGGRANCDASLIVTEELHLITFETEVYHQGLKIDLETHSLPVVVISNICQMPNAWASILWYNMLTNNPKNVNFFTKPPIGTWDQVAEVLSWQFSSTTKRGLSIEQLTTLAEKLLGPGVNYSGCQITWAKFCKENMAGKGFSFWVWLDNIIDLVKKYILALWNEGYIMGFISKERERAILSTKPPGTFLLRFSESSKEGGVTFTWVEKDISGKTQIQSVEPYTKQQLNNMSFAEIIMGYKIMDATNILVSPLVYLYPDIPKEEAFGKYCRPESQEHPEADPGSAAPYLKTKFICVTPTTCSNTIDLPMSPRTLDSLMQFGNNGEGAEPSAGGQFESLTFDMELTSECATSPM
Calibration curves for the wildtype STAT3 and STAT5b proteins were derived by incubating a 10 nM final concentration of fluoresceinated-phosphopeptide (5-FAM-pYLPQTC (SEQ ID NO:1) and 5-FAM-GpYLVLDKW (SEQ ID NO:2) for STAT3 and STAT5B, respectively), which are known to bind the SH2 domains, with increasing concentrations of protein (as shown in FIG. 3). The point at which 80% of the fluoresceinated-phosphopeptide was bound was used as the optimal protein concentration required for the competitive fluorescent polarization assays.
For the STAT5b fluorescence polarization assays, the 5-FAM-GpYLVLDKW (SEQ ID NO:2) peptide and STAT5b protein were first incubated for 30 minutes at room temperature. Compounds were titrated at concentrations ranging from 1->60,000 nM and incubated for a further 15 minutes at which point fluorescence polarization measurements were taken in triplicate. The final well concentrations of the fluoresceinated-phosphopeptide and STAT5B were 10 nM and 250 nM, respectively. The same protocol was used for the analogous STAT3 FP assays, except that the 5-FAM-pYLPQTC (SEQ ID NO:1) peptide was used as a probe and the final STAT3 concentration was 150 nM in each well.
The resulting fluorescence polarization measurements were normalized and plotted against compound concentration on a logarithmic scale. The raw data was fitted with a standard dose-normalized response inhibition curve using GraphPad Prism 6 software. The IC50 values were converted to Ki values using Equation 1, which corrects for protein concentration and is a more accurate determination of inhibitory constants in a fluorescence polarization assay than the Cheng-Pruskoff equation.^15 All inhibitory constants and calculated Ki values are summarized in Table 1.
Modified Cheng-Pruskoff equation containing a correction factor for protein concentration.

A short description of series [3]: Metabolic stability in pooled mouse liver s9 fractions with NADPH. Format: in vitro ADME. To be noted: 60 min. As for the experimental part: For the pooled s9 fractions, solution of the s9 fraction along with NADPH was added to each well. […] The positive control used in the assay was Verapamil, a known drug to be metabolized by liver enzymes. The reaction was started by the addition of 13a and performed in duplicate. Aliquots were taken from the reaction solution at 0 min and 60 min. The reaction was stopped by the addition of cold methanol. Samples were then analyzed through LC-MS/MS to determine the metabolic profile.

Series [4] is described as follows: Metabolic stability in human hepatocytes. Format: in vitro ADME. Particulars: 120 min. As for the experimental part: 13a was then evaluated within intact human and mouse hepatocytes. Like the s9 fractions, Verapamil was used as a positive control in the assay. Cryopreserved hepatocytes were thawed and plated to a working cell density of 0.5×10^6 viable cell/mL.

For orientation: Ki means the dissociation constant of the complex between target and ligand, obtained from inhibition or displacement. With `CC(C)(C)c1cc(CN(C(=O)CN(Cc2ccc(Cl)cc2)S(=O)(=O)c2c(F)c(F)c(F)c(F)c2F)c2ccc(C(=O)O)c(O)c2)cc(C(C)(C)C)c1` [Compound 13a, 4-(2-((N-(4-chlorobenzyl)-2,3,4,5,6-pentafluorophenyl)sulfonamido)-N-(3,5-di-tert-butylbenzyl)acetamido)-2-hydroxybenzoic Acid], the “effects against the bank of kinases” value in series [1] was “negligible effects”. The molecule also came in with a Ki in series [2] greater than 60 µM. Moreover, the “recovered in mouse liver s9 (MMLS9) fractions” value in series [3] was determined as 6.96%. Moreover, the “recovered in human hepatocytes” value in series [4] is recorded as 68.56%. Further, the “recovered in boiled human hepatocytes (negative control)” value in series [4] (boiled hepatocytes) is reported as roughly 85%.
